Molecules are shown by their SMILES. Values after ≈ are worked out from the molar mass of the structure shown. Where only a bound is given, the exact number is not on record here.

The nature of one data set: Solubility in solvents. The class given is physicochemical. The source says: The results of infrared (IR) absorption spectrum; ^1H-NMR and ^13C-NMR spectrum; and HMBC NMR spectrum analyses are shown in the Tables 2 & 3 and FIGS. 1–3.
Another data set has as its target T1, heparinase (Pedobacter heparinus, UniProt Q05819).
T1 construct: the heparinase was isolated from Flavobacterium heparinum; purchased Sigma Co. Ltd. (U.S.A.); host or cells: isolated from Flavobacterium heparinum
The experiment in a line: Inhibition of heparinase (heparin / antithrombin III / factor Xa chromogenic assay). The class given is biochemical, Flavobacterium heparinum. As to the method: To 17 μL of reaction buffer (14 mM sodium acetate and 1.4 mM CaCl2, pH 7.0) containing 10 ng of heparin were added 3 μL of test sample along with 0.2 unit of heparinase and placed at room temperature for 15 min. Then, 25 μL of antithrombin III solution was added and allowed to react for 2 min at room temperature and added with 25 μL of factor Xa solution. In one minute, 25 μL of factor Xa substrate was added to react for 5–10 min and then terminated the reaction by adding 25 μL of glacial acetic acid. The light absorbency was measured at 410 nm. The rate of enzyme inhibition was calculated as in the following equation 1, wherein IC50 was the concentration of the inhibitor when the rate of enzyme inhibition reached 50%. Inhibition (%)=(A−C)/(A−B)×100 [Equation 1]
In the above equation 1, A represents the light absorbance of the reagent after reaction when the inhibitor was not added, B represents the light absorbance of the reagent after reaction when enzyme solution was not added, and C represents the light absorbance of the reagent after reaction when the inhibitor was added.
The heparinase used in this experiment was purchased from Sigma Co. Ltd. (U.S.A.), wherein the heparinase was isolated from Flavobacterium heparinum.

A further data set deals with B16 melanoma cells. Briefly: Invasion of B16 melanoma cells (Matrigel invasion). The class given is cell-based. The following applies: for Relative Rate of Invasion (%): control 100; for No. of Cells Invaded: control 420.7 ± 15.6. As to the method: MT70646 (KCTC 0916BP) against the invasion of B16 melanoma cells through the synthetic basal membranes. […]
BioCoat invasion chamber (precoated Matrigel) was swelled for 30 min by serum-free DMEM and the chamber was placed into the well of 24 well plate which contains 600 μL of HT 1080 conditioned medium. And then 450 μL of melanoma cell suspension (4.5×10^3 cells) in DMEM medium containing 0.5% albumin was added into the chamber. After adding 50 μL of test sample, the chamber was incubated for 22–24 hr at 37° C. in a 5% CO2 atmosphere. And the filter of chamber was detached and fixed with methanol. After staining the filter with 5% crystal violet and the cells on the upper surface of the filters were removed by wiping them with a cotton swab. The cells invaded through the Matrigel and filter to the lower surface were counted under a microscope.

Data set [1] has as its system human umbilical vein enothelial cell (HUVEC). Briefly: Angiogenesis: HUVEC tube formation on Matrigel. Conditions: 18 hr, read-out: Inhibitory activity against the angiogenesis (tube formation); for inhibition at 1 µg/mL: 1 μg/mL; for inhibition at 3 µg/mL: 3 μg/mL; for inhibition at 10 µg/mL: 10 μg/mL. The class given is cell-based. As to the method:
After thawing Matrigel on ice, 40 μL of the Matrigel was added into each wells of a 96 well plate and placed for 30 min at 37° C. to solidify the Matrigel. Then, 180 μL of human umbilical vein enothelial cell (HUVEC) suspension (2×10^4 cells) was added made into each well of the solidified Matrigel and incubated for 18 hr in a 5% CO2 atmosphere at 37° C. The degree of tube formation was observed by microscope.

Data set [2] concerns the target T2, heparanase derived from human platelets (Homo sapiens, UniProt Q9Y251).
T2 construct: 10 ng of heparanase derived from human platelets; from tissue; host or cells: human platelets
T2 sequence (Q9Y251 158-543 limits assumed): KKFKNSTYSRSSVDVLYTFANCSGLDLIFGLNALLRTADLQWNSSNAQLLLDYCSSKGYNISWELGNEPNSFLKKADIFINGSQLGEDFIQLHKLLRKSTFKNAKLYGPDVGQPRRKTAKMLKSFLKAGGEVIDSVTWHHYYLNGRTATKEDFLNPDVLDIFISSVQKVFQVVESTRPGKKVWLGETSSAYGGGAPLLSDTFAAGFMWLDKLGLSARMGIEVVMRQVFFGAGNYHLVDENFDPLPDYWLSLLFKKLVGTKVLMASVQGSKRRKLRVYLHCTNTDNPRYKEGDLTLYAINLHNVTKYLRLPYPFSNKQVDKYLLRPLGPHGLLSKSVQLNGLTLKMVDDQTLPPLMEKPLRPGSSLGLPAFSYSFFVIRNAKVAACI
T2 sequence (Q9Y251 36-109 limits assumed): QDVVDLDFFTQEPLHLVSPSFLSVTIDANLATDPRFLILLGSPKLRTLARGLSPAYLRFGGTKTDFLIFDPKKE
Briefly: Inhibition of heparanase (3H-heparan sulfate degradation). The class given is biochemical. Conditions: 10 ng heparanase, 30 min at 37° C., pH 5.1; read-out: IC50 against heparanase.
From the text: After the reaction, the reaction mixture was passed through a column filled with HRG-Sepharose beads and eluted out the degraded heparan sulfate by heparanase to measure the radioactivity.

T1 sequence (Q05819 22-384): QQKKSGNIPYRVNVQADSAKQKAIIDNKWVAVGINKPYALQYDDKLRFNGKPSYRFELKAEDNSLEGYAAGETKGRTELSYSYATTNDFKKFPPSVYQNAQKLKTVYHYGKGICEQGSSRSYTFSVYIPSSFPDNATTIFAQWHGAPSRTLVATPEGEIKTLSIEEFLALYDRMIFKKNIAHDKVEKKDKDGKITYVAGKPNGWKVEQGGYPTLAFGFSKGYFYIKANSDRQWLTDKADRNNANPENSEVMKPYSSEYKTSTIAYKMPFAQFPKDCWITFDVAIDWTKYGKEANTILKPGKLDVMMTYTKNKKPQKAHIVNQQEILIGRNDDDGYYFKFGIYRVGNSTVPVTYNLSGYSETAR

In general, IC50 refers to the concentration needed to halve the response being measured. Regarding `CCCCCCCCCCCCCCCc1cc(OC2OC(C(=O)OC)C(O)C(O)C2O)cc(O)c1C(=O)Oc1cc(C)c(C(=O)O)c(O)c1` (single isomer, unassigned) [CRM646-B], the “Physicochemical properties (comparison)” value in the data set “Solubility in solvents” is “almost same as in the compound CRM646-A”. For the same molecule, the IC50 was 25 µM against heparinase and roughly 2 µg/mL (≈ 2.84 µM) with B16 melanoma cells (Mus musculus, B16, estimated from Table 4, read-out: IC50 against invasion of B16 melanoma cells). Also, the entries for the “Relative Rate of Invasion (%)” value in the data set with B16 melanoma cells (1 μg/mL), with B16 melanoma cells (3 μg/mL) and in the data set with B16 melanoma cells (10 μg/mL) were 89.5%, 36.9% and 13.3%, respectively. The “No. of Cells Invaded” value in the data set with B16 melanoma cells (1 μg/mL) was found to be 376.7 ± 19.7; in the data set on B16 melanoma cells (3 μg/mL), 155.3 ± 18.6; in the data set with B16 melanoma cells (10 μg/mL) it was 56.0 ± 8.9. Besides, the inhibition at 10 µg/mL is greater than 80% in the data set with B16 melanoma cells (Mus musculus, B16, 10 μg/mL, read-out: Inhibitory activity against invasion) and 60% in data set [1]. In data set [1], the inhibition at 1 µg/mL is less than 30%. In data set [1], the inhibition at 3 µg/mL came to 30%.

On to `CCCCCCCCCCCCCCCc1cc(OC2OC(C(=O)O)C(O)C(O)C2O)cc(O)c1C(=O)Oc1cc(C)c(C(=O)O)c(O)c1` (centres unmarked) [CRM646-A], for which, in “Solubility in solvents”, the “Solubility in ethanol, butanol, dimethyl sulfoxide (DMSO)” value is listed as “well dissolved”; the “Solubility in water, hexane and chloroform” value was “not dissolved easily”. Besides, the IC50 at heparinase was 3 µM. In the data set on B16 melanoma cells (1 μg/mL), the “Relative Rate of Invasion (%)” value worked out at 100.1% and the “No. of Cells Invaded” value is 421.0 ± 15.6. In addition, in the data set with B16 melanoma cells (3 μg/mL), the “Relative Rate of Invasion (%)” value was 91.4% and the “No. of Cells Invaded” value turned out to be 384.4 ± 9.4. Also, in the data set with B16 melanoma cells (10 μg/mL), the “Relative Rate of Invasion (%)” value was 71.5% and the “No. of Cells Invaded” value turned out to be 300.8 ± 10.2. In data set [1], the inhibition at 1 µg/mL was less than 30%, the inhibition at 3 µg/mL is less than 30% and the inhibition at 10 µg/mL was determined as 30%. In data set [2], the IC50 was determined as 10 µM.
